Here are results for eleven molecules from article PMC8524670 (Pharmacology Research & Perspectives, 2021).

Structures can show the parent of a compound that is named as a salt.

The target of data set [1] is T1, OCT2 (Homo sapiens, UniProt O15244).
T1 sequence (O15244 1-555): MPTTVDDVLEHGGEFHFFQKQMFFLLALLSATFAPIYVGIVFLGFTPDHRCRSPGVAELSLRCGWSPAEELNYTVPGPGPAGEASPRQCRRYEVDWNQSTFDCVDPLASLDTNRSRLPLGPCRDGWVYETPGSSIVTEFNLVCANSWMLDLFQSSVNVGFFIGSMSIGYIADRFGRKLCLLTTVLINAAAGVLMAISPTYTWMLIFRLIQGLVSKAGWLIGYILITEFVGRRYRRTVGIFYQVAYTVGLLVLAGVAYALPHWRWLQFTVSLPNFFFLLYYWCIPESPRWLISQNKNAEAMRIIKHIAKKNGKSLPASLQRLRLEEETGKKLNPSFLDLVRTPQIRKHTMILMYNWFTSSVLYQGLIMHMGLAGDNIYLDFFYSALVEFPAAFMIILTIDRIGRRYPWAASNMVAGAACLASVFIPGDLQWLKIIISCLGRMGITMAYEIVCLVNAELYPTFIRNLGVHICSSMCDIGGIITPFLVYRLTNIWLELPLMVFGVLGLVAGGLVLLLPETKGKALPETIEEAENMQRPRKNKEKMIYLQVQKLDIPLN
Description: SLC inhibition assay in HEK293 cells. It counts as in vitro ADME. The following applies: human, HEK293 cells overexpressing OCT2 (and MOCK cells), probe metformin.

For data set [2], the target named is T2, human BCRP (Homo sapiens, UniProt Q9UNQ0).
T2 sequence (Q9UNQ0 1-655): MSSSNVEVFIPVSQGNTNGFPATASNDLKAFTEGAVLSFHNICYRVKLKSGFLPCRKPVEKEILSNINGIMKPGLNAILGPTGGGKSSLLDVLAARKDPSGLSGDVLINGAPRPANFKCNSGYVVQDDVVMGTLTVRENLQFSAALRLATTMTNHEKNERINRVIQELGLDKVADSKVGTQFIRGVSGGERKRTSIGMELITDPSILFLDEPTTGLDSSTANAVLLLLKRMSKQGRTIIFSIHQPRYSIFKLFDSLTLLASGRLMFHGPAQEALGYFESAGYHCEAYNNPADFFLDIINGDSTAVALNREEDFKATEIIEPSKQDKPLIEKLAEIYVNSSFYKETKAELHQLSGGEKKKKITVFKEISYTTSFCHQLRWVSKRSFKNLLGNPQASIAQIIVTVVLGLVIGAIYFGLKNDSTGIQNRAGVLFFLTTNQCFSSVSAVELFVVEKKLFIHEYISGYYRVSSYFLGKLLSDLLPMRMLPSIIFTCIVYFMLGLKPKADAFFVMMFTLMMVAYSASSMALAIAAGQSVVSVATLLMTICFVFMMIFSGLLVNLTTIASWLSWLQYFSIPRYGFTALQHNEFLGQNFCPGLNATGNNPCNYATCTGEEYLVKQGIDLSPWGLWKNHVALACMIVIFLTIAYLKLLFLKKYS
Description: BCRP inhibition in vesicles. The class given is in vitro ADME. The following applies: BCRP inhibition assay, buffer vehicle.

Data set [3] addresses T2, human BCRP. Description: BCRP transportation in inside-out vesicles. It counts as in vitro ADME. The following applies: BCRP vesicles, LFY 10 μM probe substrate.
The next data set concerns CYP2B6. Put plainly: CYP induction in human hepatocytes. It counts as in vitro ADME. Conditions: human, cryopreserved human hepatocytes.
In data set [4] the target is T3, P-gp (Homo sapiens, UniProt P08183). Conditions: healthy subjects; cited from earlier work.
T3 sequence (P08183 whole entry): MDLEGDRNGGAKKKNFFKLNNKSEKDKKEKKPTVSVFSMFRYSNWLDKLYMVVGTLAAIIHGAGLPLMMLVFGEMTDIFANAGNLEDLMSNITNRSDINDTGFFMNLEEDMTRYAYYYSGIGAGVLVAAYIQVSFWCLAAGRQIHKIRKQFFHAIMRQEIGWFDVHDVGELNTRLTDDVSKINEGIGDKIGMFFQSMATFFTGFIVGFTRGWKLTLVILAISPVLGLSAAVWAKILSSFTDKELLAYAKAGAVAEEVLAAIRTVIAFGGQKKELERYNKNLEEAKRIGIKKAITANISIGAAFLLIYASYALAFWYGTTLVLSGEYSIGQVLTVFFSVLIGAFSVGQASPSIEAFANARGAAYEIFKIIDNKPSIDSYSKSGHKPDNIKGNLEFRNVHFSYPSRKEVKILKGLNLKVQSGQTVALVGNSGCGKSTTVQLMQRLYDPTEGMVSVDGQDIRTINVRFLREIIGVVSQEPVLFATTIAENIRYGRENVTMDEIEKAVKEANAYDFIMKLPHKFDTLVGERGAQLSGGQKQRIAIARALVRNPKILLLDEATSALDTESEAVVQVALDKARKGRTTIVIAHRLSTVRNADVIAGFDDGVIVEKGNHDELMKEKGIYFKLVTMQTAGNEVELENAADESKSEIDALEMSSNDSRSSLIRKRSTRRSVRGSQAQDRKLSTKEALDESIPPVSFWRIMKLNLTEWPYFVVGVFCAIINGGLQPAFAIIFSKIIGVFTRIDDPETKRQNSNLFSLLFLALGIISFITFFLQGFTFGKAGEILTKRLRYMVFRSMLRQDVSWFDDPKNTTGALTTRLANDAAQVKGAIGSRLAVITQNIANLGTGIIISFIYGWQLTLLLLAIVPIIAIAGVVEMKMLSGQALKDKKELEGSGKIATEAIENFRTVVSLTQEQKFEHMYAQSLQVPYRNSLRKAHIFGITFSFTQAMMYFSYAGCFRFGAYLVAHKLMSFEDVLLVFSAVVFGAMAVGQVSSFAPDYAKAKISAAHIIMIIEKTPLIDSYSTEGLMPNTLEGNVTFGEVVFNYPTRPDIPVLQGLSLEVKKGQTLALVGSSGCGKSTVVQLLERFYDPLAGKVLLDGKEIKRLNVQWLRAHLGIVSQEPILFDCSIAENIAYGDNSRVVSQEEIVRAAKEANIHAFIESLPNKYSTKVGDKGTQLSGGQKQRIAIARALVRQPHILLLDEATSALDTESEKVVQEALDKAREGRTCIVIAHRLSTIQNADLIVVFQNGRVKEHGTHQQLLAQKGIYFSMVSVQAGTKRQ
Data set [5] deals with T4, OAT3 (Homo sapiens, UniProt Q8TCC7).
T4 sequence (Q8TCC7 1-542): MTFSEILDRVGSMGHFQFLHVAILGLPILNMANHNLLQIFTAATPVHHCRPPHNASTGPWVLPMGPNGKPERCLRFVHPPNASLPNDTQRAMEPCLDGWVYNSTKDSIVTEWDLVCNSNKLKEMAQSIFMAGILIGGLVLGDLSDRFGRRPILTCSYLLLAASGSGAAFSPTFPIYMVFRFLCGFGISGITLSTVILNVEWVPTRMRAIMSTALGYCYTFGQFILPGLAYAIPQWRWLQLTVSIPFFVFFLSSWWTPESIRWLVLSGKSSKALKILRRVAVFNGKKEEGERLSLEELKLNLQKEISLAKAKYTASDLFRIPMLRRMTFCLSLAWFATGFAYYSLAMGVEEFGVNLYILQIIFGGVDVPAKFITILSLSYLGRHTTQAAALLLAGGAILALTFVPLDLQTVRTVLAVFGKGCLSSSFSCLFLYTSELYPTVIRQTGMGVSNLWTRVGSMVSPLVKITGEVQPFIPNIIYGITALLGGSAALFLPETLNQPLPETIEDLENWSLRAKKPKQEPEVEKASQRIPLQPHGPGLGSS
Put plainly: SLC transportation assay in HEK293 cells. The class given is in vitro ADME. Conditions: control substrate, 20 µM.

In the next data set the test system is CYP3A. The following applies: cited from earlier work.
The target of data set [6] is T3, P-gp. Put plainly: P-gp inhibition in Caco-2 cells. The class given is in vitro ADME. The following applies: human, Caco-2, probe digoxin.
In the next data set the target is T5, OATP1B1 (Homo sapiens, UniProt Q9Y6L6).
T5 sequence (Q9Y6L6 1-691): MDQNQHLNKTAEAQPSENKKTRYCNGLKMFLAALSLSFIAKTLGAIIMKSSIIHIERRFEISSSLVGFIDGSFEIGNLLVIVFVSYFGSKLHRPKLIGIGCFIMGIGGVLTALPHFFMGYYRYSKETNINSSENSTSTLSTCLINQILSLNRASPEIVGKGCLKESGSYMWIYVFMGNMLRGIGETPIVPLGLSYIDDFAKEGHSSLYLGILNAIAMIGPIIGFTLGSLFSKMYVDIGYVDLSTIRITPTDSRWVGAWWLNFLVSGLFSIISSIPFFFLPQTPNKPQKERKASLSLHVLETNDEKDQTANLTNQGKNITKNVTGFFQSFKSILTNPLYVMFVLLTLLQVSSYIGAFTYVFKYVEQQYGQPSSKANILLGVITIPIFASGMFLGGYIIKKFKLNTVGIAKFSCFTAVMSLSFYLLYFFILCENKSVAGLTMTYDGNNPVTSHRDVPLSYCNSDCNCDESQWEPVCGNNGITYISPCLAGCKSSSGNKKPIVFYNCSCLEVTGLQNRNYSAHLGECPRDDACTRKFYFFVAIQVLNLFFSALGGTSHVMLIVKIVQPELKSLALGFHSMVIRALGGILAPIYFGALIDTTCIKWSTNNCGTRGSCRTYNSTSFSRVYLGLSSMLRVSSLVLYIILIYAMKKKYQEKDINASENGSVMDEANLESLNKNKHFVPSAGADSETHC
Put plainly: SLC transportation assay in HEK293 cells. The class given is in vitro ADME. The following applies: control substrate, 20 µM.

Another data set addresses T6, OATP1B3 (Homo sapiens, UniProt Q9NPD5).
T6 sequence (Q9NPD5 1-702): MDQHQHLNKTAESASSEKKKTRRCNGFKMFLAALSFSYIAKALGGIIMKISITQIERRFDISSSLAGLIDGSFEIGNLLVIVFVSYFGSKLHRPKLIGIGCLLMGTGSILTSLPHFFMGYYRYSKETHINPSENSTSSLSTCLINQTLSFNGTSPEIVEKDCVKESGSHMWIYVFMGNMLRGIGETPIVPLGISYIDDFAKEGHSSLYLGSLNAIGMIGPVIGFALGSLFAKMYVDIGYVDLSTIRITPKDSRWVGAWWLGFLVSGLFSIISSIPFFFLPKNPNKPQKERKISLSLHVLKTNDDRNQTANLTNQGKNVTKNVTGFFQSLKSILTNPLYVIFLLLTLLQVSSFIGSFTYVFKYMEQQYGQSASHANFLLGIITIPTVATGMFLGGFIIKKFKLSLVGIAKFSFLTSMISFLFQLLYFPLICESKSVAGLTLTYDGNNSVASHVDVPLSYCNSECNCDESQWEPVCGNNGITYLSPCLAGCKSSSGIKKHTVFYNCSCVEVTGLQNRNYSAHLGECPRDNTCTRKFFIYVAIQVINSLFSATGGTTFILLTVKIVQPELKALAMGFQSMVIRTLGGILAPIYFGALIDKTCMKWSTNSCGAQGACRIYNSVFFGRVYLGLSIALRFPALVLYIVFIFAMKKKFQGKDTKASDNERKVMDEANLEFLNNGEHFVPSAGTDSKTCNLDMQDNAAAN
Description: SLC transportation assay in HEK293 cells. The following applies: control substrate, 20 µM. It counts as in vitro ADME.

The subject of the next data set is CYP1A2. Put plainly: in vitro. The following applies: human, positive control omeprazole 50 µM.
Data set [7] addresses T1, OCT2. Put plainly: SLC transportation assay in HEK293 cells. The class given is in vitro ADME. Conditions: control substrate, 50 µM.
The target of data set [8] is T4, OAT3. Description: SLC inhibition assay in HEK293 cells. Conditions: human, HEK293 cells overexpressing OAT3 (and MOCK cells), probe estrone sulfate. It counts as in vitro ADME.

The molecule `C=C[C@H]1C[N@@]2CC[C@H]1C[C@@H]2[C@@H](O)c1ccnc2ccc(OC)cc12` [Quinidine, reference compound] yielded an activity at 500 µM on OCT2 [1] of 31.5 ± 8%.

On to “Lucifer Yellow [LFY, reference compound]”, for which the “Uptake ratio of LFY” value on human BCRP [2] is given as 14.9 fold. The “Uptake ratio (ATP versus AMP)” value on human BCRP [3] is given as 17.4 ± 0.31 fold.

In general, fold induction refers to the signal under treatment as a multiple of the control signal. A high value points to a large rise in signal. Turning to `CCC1(c2ccccc2)C(=O)NC(=O)NC1=O` [phenobarbital, reference compound], the values for the fold induction at 2 days, 1000 µM in the data set with CYP2B6 and with CYP2B6 (probe bupropion) were 6.4 ± 3 and 9.6 ± 5.4, respectively.

Regarding `CCOc1cc2ncc(C#N)c(Nc3ccc(OCc4ccccn4)c(Cl)c3)c2cc1NC(=O)/C=C/CN(C)C` [neratinib], on P-gp [4], the “Increase of AUC of digoxin” value is 32% and the “Increase of mean digoxin C max” value is listed as 54%.

As to `C[C@]12CC[C@@H]3c4ccc(OS(=O)(=O)O)cc4CC[C@H]3[C@@H]1CCC2=O` [Estrone sulfate, reference compound], the Uptake ratio on OAT3 [5] is listed as 16.1 ± 0.45.

As to `CC[C@H](Nc1ncnc2[nH]cnc12)c1nc2cccc(F)c2c(=O)n1-c1ccccc1` [idelalisib], in the data set with CYP3A, the “Increase of exposure of midazolam” value was 5.15 fold.

The Papp B→A is how fast a substance crosses the layer from the basolateral side. Consider `C[C@H]1O[C@@H](O[C@H]2[C@@H](O)C[C@H](O[C@H]3[C@@H](O)C[C@H](O[C@H]4CC[C@@]5(C)[C@H](CC[C@@H]6[C@@H]5C[C@@H](O)[C@]5(C)[C@@H](C7=CC(=O)OC7)CC[C@]65O)C4)O[C@@H]3C)O[C@@H]2C)C[C@H](O)[C@@H]1O` [Digoxin, reference compound], for which the basolateral-to-apical permeability (Papp B→A) at 120 min, 10 µM on P-gp [6] stood at 15.4 ± 0.4 ×10⁻⁶ cm/s.

Consider `C[C@]12CC[C@@H]3c4ccc(O)cc4CC[C@H]3[C@@H]1CC[C@@H]2O[C@@H]1O[C@H](C(=O)O)[C@@H](O)[C@H](O)[C@H]1O` [Estradiol‐17β‐glucuronide, reference compound], for which the Uptake ratio is recorded as 38.5 ± 5.5 at OATP1B1 and 5.82 ± 0.62 on OATP1B3.

In the case of `COc1ccc2[nH]c([S+]([O-])Cc3ncc(C)c(OC)c3C)nc2c1` (stereo not shown) [Omeprazole], the figures for the fold induction at 2 days, 50 µM in the data set with CYP1A2 (Fold induction of activity) and with CYP1A2 (Fold induction of mRNA level) were 42 ± 6.4 and 82 ± 94, respectively.

On to `CN(C)C(=N)N=C(N)N` [Metformin, reference compound], for which the Uptake ratio on OCT2 [7] is reported as 3.49 ± 0.26.

Turning to `CCCN(CCC)S(=O)(=O)c1ccc(C(=O)O)cc1` [Probenecid, reference compound], on OAT3 [8], the activity at 50 µM was found to be 12.5 ± 8%.
